Measured values taken from US20250092065A1, “2-(INDAZOL-5-YL)-6-(PIPERIDIN-4-YL)-1,7-NAPHTHYRIDINE DERIVATIVES AND RELATED COMPOUNDS AS MODULATORS FOR SPLICING NUCLEIC ACIDS AND FOR THE TREATMENT OF PROLIFERATIVE DISEASES” (REMIX THERAPEUTICS INC., priority 2022, published 2025).
pIC50: −log10 of the molar value. Counter-ions that a name gives are not always drawn. Like-named read-outs stand apart in the source and are kept apart here.

Columns and labels:
HTT mRNA = assay: RT-qPCR splicing assay, HTT mRNA canonical (CJ) and alternative (AJ) junction; format: cell-based, human; conditions: Homo sapiens; for AC50: HTT alternative junction mRNA increase, read-out: HTT AJ (increase in alternative junction mRNA, AC50)
Summary of the method: (§1)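 A673 or K562 cells treated 24 h at 37 °C with 11-point 3-fold dilutions (top final 10 uM, DMSO ≤0.25%). Lysates analysed by one-step RT-qPCR for canonical (CJ) and alternative-exon (AJ) junctions, normalized to GAPDH, GUSB or PPIA. ΔΔCt vs DMSO, RQ = 2^(−ΔΔCt), expressed as percentage response.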

MYB mRNA = assay: RT-qPCR splicing assay, MYB mRNA canonical (CJ) and alternative (AJ) junction; format: cell-based, human; conditions: Homo sapiens; for AC50: MYB alternative junction mRNA increase, read-out: MYB AJ (increase in alternative junction mRNA, AC50)
Summary of the method: as §1

SMN2 mRNA = assay: RT-qPCR splicing assay, SMN2 mRNA; format: cell-based, human; conditions: Homo sapiens, canonical junction qPCR panel, Table 4; read-out: SMN2 IC50 (decrease in CJ mRNA levels)
Summary of the method: as §1

Target C = assay: RT-qPCR canonical junction panel assay, Target C mRNA; format: cell-based; conditions: Table 4, read-out: Target C IC50 (decrease in CJ mRNA levels)
Summary of the method: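 A673 or K562 cells treated with compound; CJ mRNA quantified by junction-spanning RT-qPCR probe after cDNA synthesis, normalised to GAPDH, GUSB or PPIA and DMSO (2^−ΔΔCt), scaled to set ΔCt assay window; IC50 from 4-parameter fit of CJ decrease.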

K562 cells = assay: Cell Titer Glo 2.0 cell viability (toxicity) assay, K562; conditions: 500 cells/well, 72 hours
[1] = RT-qPCR, HTT canonical junction mRNA decrease, read-out: HTT CJ (decrease in canonical junction mRNA, IC50)
[2] = canonical junction qPCR panel, Table 4, read-out: HTT IC50 (decrease in CJ mRNA levels)
[3] = RT-qPCR, MYB canonical junction mRNA decrease, read-out: MYB CJ (decrease in canonical junction mRNA, IC50)
[4] = canonical junction qPCR panel, Table 4, read-out: MYB IC50 (decrease in CJ mRNA levels)

Row | pIC50 (HTT mRNA; [1]) | pIC50 (HTT mRNA; [2]) | pIC50 (MYB mRNA; [3]) | pIC50 (MYB mRNA; [4]) | pIC50 (SMN2 mRNA) | pIC50 (Target C) | Structure (SMILES) | AC50 (HTT mRNA; RT-qPCR) | AC50 (MYB mRNA; RT-qPCR) | Effect of Exemplary Compounds on Cell Viability, K562 (K562 cells)
1 | < 5.00 | < 5.00 | 5.00 to 6.00 | 5.00 to 6.00 | 6.00 to 7.00 | < 5.00 | CCc1cn2cc(-c3ncc4cc(N5C[C@H](C)N[C@@H](C)C5)ccc4n3)cc(F)c2n1 [Compound 821] | > 10000 nM | > 10000 nM | C (C represents 1000-9999 nM)
2 | 6.00 to 7.00 | 6.00 to 7.00 | 6.00 to 7.00 | 6.00 to 7.00 | > 7.00 | 5.00 to 6.00 | Cc1cn2cc(-c3ncc4cc(N5C[C@H](C)N(C)[C@@H](C)C5)ccc4n3)cc(F)c2n1 [Compound 824] | 1000 to 10000 nM | 100 to 1000 nM | B (B represents 100-1000 nM)
3 | 5.00 to 6.00 | 5.00 to 6.00 | 6.00 to 7.00 | 6.00 to 7.00 | > 7.00 | 5.00 to 6.00 | Cc1cn2cc(-c3ncc4cc(N5C[C@@H](C)N(C)[C@@H](C)C5)ccc4n3)cc(F)c2n1 [Compound 826, 2-{8-fluoro-2-methylimidazo[1,2-a]pyridin-6-yl}-6-[(3R,5S)-3,4,5-trimethylpiperazin-1-yl]quinazoline] | 1000 to 10000 nM | < 100 nM | B (B represents 100-1000 nM)

Second part, the molecule before the results:

Row | Structure (SMILES) | pIC50 (HTT mRNA; [1]) | pIC50 (HTT mRNA; [2]) | pIC50 (MYB mRNA; [3]) | pIC50 (MYB mRNA; [4]) | pIC50 (SMN2 mRNA) | pIC50 (Target C) | AC50 (HTT mRNA; RT-qPCR) | AC50 (MYB mRNA; RT-qPCR) | Effect of Exemplary Compounds on Cell Viability, K562 (K562 cells)
4 | Cc1nc(-c2cc(F)c3nn(C)cc3c2)nc2ccc(N3CCC(N4CCC4)CC3)cc12 [Compound 788, 6-[4-(azetidin-1-yl)piperidin-1-yl]-2-(7-fluoro-2-methylindazol-5-yl)-4-methylquinazoline] | 5.00 to 6.00 | 5.00 to 6.00 | 5.00 to 6.00 | 5.00 to 6.00 | > 7.00 | 5.00 to 6.00 | 1000 to 10000 nM | 100 to 1000 nM | B (B represents 100-1000 nM)
5 | COc1cc(-c2ncc3cc(N4C[C@H](C)N[C@@H](C)C4)ccc3n2)cn2cc(C)nc12 [Compound 816] | 5.00 to 6.00 | 5.00 to 6.00 | 6.00 to 7.00 | 6.00 to 7.00 | > 7.00 | < 5.00 | 1000 to 10000 nM | < 100 nM | B (B represents 100-1000 nM)
6 | Cc1cn2cc(-c3ncc4cc(N5C[C@H](C)N[C@@H](C)C5)ccc4n3)cc(C#N)c2n1 [Compound 817] | 6.00 to 7.00 | 6.00 to 7.00 | > 7.00 | > 7.00 | > 7.00 | 5.00 to 6.00 | 1000 to 10000 nM | < 100 nM | B (B represents 100-1000 nM)
7 | Cc1nc2c(F)cc(-c3ncc4cc(N5C[C@H](C)N[C@@H](C)C5)ccc4n3)cn2n1 [Compound 819, 6-[(3S,5S)-3,5-dimethylpiperazin-1-yl]-2-{8-fluoro-2-methyl-[1,2,4]triazolo[1,5-a]pyridin-6-yl}quinazoline hydrochloride] | 5.00 to 6.00 | 5.00 to 6.00 | 6.00 to 7.00 | 6.00 to 7.00 | > 7.00 | 5.00 to 6.00 | 1000 to 10000 nM | 100 to 1000 nM | B (B represents 100-1000 nM)
8 | COc1nc(-c2ncc3cc(N4C[C@H](C)N[C@@H](C)C4)ccc3n2)cn2cc(C)nc12 [Compound 823] | 5.00 to 6.00 | 5.00 to 6.00 | 6.00 to 7.00 | 6.00 to 7.00 | > 7.00 | < 5.00 | 1000 to 10000 nM | 100 to 1000 nM | B (B represents 100-1000 nM)
9 | Cc1nc2c(F)cc(-c3ncc4cc(N5C[C@@H](C)N[C@@H](C)C5)ccc4n3)cn2n1 [Compound 825, 6-[(3R,5S)-3,5-dimethylpiperazin-1-yl]-2-{8-fluoro-2-methyl-[1,2,4]triazolo[1,5-a]pyridin-6-yl}quinazoline] | 5.00 to 6.00 | 5.00 to 6.00 | 6.00 to 7.00 | 6.00 to 7.00 | > 7.00 | 5.00 to 6.00 | 1000 to 10000 nM | 100 to 1000 nM | C (C represents 1000-9999 nM)
